Columns and labels:
[1] = Acute toxicity, intravenous, mice; format: in vivo; details: mouse, in vivo; intravenous, within 24 hours; read-out: Evaluated LD50-range
[2] = test system: female NMRI-albino mice; assay: Acute toxicity, intravenous, mice; format: in vivo; details: within 24 hours
[3] = test system: isolated guinea pig hearts; assay: Experiments on Langendorff hearts (coronary flowthrough, inotropism, frequency); details: Cavia porcellus, read-out: flowthrough, percentage change with regard to the initial value
Protocol: After reaching the stationary state in the 30th minute, the hearts were each perfused with 50 ml. tyrode solution with a content of test substance of, in each case, 25 μg./ml. Each test substance was tested on 3-6 hearts.
In each case, there was measured the inotropism, the flowthrough and the frequency, whereby the values given in Table I are average values of the percentage changes in comparison with the initial values.

[4] = test system: narcotised guinea pigs; assay: Blood pressure experiments on guinea pigs, i.v.; format: in vivo, guinea pig; details: for blood pressure before: before administration
[5] = test system: mongrel cats; assay: Inotropic and heart-circulatory effectiveness on narcotised cats, intravenous; format: in vivo, cat; details: 6 animals; for blood pressure before / dp/dt (inotropism) before / heart frequency before: before administration

Compound: O=[N+]([O-])O[C@H]1CO[C@H]2[C@@H]1OC[C@@H]2NCc1ccccc1 [Example 25, 5-Benzylamino-5-desoxy-1.4;3.6-dianhydro-L-iditol 2-nitrate]
- LD50 at 24 h [1]: 100 to 200 mg/kg
- Frequency of death ([2]; 100 mg/kg i.v.): 0/3
- Frequency of death ([2]; 200 mg/kg i.v.): 6/6
- activation at 25 µg/mL [3]: 47.8%

Compound: O=[N+]([O-])O[C@H]1CO[C@H]2[C@@H]1OC[C@@H]2NCCOc1ccccc1 [Example 35, 5-(2-Phenoxyethylamino)-5-desoxy-1.4;3.6-dianhydro-L-iditol 2-nitrate]
- LD50 at 24 h [1]: ≥ 100 mg/kg
- Frequency of death ([2]; 100 mg/kg i.v.): 2/6
- Frequency of death ([2]; 200 mg/kg i.v.): 3/3
- activation at 25 µg/mL [3]: 34%

Compound: C=CCc1ccccc1OCC(O)CN[C@H]1CO[C@H]2[C@@H]1OC[C@@H]2O[N+](=O)[O-] (stereo partly drawn) [Example 49, 5-[2-Hydroxy-3-(2-allylphenoxy)-propylamino]-5-desoxy-1.4;3.6-dianhydro-L-iditol 2-nitrate]
- blood pressure after ([4]; 0.25 mg/kg i.v.): 43.50 ± 3.38 mm.Hg
- blood pressure Δ ([4]; 0.25 mg/kg i.v.): -2.25 mm.Hg
- blood pressure before ([4]; 0.25 mg/kg i.v.): 45.75 ± 2.53 mm.Hg
- blood pressure after ([4]; 1.00 mg/kg i.v.): 30.25 ± 1.70 mm.Hg
- blood pressure Δ ([4]; 1.00 mg/kg i.v.): -12.75 mm.Hg
- blood pressure after ([4]; 2.50 mg/kg i.v.): 20.25 ± 1.03 mm.Hg
- blood pressure Δ ([4]; 2.50 mg/kg i.v.): -22.50 mm.Hg
- activation at 25 µg/mL [3]: 191%
- blood pressure before ([5]; 0.25 mg/kg i.v.): 116.6 mm.Hg
- dp/dt (inotropism) before ([5]; 0.25 mg/kg i.v.): 7840 mm.Hg/sec
- heart frequency before ([5]; 0.25 mg/kg i.v.): 200.4 min⁻¹
- blood pressure WD ([5]; 0.25 mg/kg i.v.): 2.8 min
- blood pressure after ([5]; 0.25 mg/kg i.v.): 113.6 mm.Hg
- blood pressure Δ ([5]; 0.25 mg/kg i.v.): -3.0 mm.Hg
- dp/dt (inotropism) after ([5]; 0.25 mg/kg i.v.): 7360 mm.Hg/sec
- dp/dt (inotropism) Δ ([5]; 0.25 mg/kg i.v.): -480 mm.Hg/sec
- dp/dt WD ([5]; 0.25 mg/kg i.v.): 3.1 min
- heart frequency after ([5]; 0.25 mg/kg i.v.): 201.2 min⁻¹
- heart frequency Δ ([5]; 0.25 mg/kg i.v.): +0.8 min^-1
- blood pressure WD ([5]; 0.50 mg/kg i.v.): 3.7 min
- blood pressure after ([5]; 0.50 mg/kg i.v.): 110.6 mm.Hg
- blood pressure Δ ([5]; 0.50 mg/kg i.v.): -9.2 mm.Hg
- dp/dt (inotropism) after ([5]; 0.50 mg/kg i.v.): 6540 mm.Hg/sec
- dp/dt (inotropism) Δ ([5]; 0.50 mg/kg i.v.): -1060 mm.Hg/sec
- dp/dt WD ([5]; 0.50 mg/kg i.v.): 14.0 min
- heart frequency after ([5]; 0.50 mg/kg i.v.): 202.0 min⁻¹
- heart frequency Δ ([5]; 0.50 mg/kg i.v.): +2.0 min^-1
- blood pressure WD ([5]; 1.00 mg/kg i.v.): 11.6 min
- blood pressure after ([5]; 1.00 mg/kg i.v.): 105.8 mm.Hg
- blood pressure Δ ([5]; 1.00 mg/kg i.v.): -16.8 mm.Hg
- dp/dt (inotropism) after ([5]; 1.00 mg/kg i.v.): 4680 mm.Hg/sec
- dp/dt (inotropism) Δ ([5]; 1.00 mg/kg i.v.): -2260 mm.Hg/sec
- dp/dt WD ([5]; 1.00 mg/kg i.v.): > 40 min
- heart frequency after ([5]; 1.00 mg/kg i.v.): 188.4 min⁻¹
- heart frequency Δ ([5]; 1.00 mg/kg i.v.): -5.6 min⁻¹
- blood pressure WD ([5]; 2.50 mg/kg i.v.): > 10 min
- blood pressure after ([5]; 2.50 mg/kg i.v.): 86.6 mm.Hg
- blood pressure Δ ([5]; 2.50 mg/kg i.v.): -35.0 mm.Hg
- dp/dt (inotropism) after ([5]; 2.50 mg/kg i.v.): 3780 mm.Hg/sec
- dp/dt (inotropism) Δ ([5]; 2.50 mg/kg i.v.): -2900 mm.Hg/sec
- dp/dt WD ([5]; 2.50 mg/kg i.v.): > 10 min
- heart frequency after ([5]; 2.50 mg/kg i.v.): 170.4 min⁻¹
- heart frequency Δ ([5]; 2.50 mg/kg i.v.): -20.8 min⁻¹

Compound: O=[N+]([O-])O[C@H]1CO[C@H]2[C@@H]1OC[C@@H]2NCC(O)COc1cccc2ccccc12 (stereo partly drawn) [Example 54, 5-[2-Hydroxy-3-(1-naphthyloxy)-propylamino]-5-desoxy-1.4;3.6-dianhydro-L-iditol 2-nitrate]
- blood pressure after ([4]; 0.25 mg/kg i.v.): 62.25 ± 8.05 mm.Hg
- blood pressure Δ ([4]; 0.25 mg/kg i.v.): -4.75 mm.Hg
- blood pressure before ([4]; 0.25 mg/kg i.v.): 67.00 ± 4.51 mm.Hg
- blood pressure after ([4]; 1.00 mg/kg i.v.): 56.50 ± 4.97 mm.Hg
- blood pressure Δ ([4]; 1.00 mg/kg i.v.): -10.75 mm.Hg
- blood pressure after ([4]; 2.50 mg/kg i.v.): 44.75 ± 4.50 mm.Hg
- blood pressure Δ ([4]; 2.50 mg/kg i.v.): -23.75 mm.Hg
- activation at 25 µg/mL [3]: 274%
- blood pressure before ([5]; 0.25 mg/kg i.v.): 115.2 mm.Hg
- dp/dt (inotropism) before ([5]; 0.25 mg/kg i.v.): 8783 mm.Hg/sec
- heart frequency before ([5]; 0.25 mg/kg i.v.): 188.7 min⁻¹
- blood pressure WD ([5]; 0.25 mg/kg i.v.): 1.9 min
- blood pressure after ([5]; 0.25 mg/kg i.v.): 103.8 mm.Hg
- blood pressure Δ ([5]; 0.25 mg/kg i.v.): -11.4 mm.Hg
- dp/dt (inotropism) after ([5]; 0.25 mg/kg i.v.): 8150 mm.Hg/sec
- dp/dt (inotropism) Δ ([5]; 0.25 mg/kg i.v.): -633 mm.Hg/sec
- dp/dt WD ([5]; 0.25 mg/kg i.v.): 3.9 min
- heart frequency after ([5]; 0.25 mg/kg i.v.): 187.7 min⁻¹
- heart frequency Δ ([5]; 0.25 mg/kg i.v.): -1.0 min⁻¹
- blood pressure WD ([5]; 0.50 mg/kg i.v.): 3.2 min
- blood pressure after ([5]; 0.50 mg/kg i.v.): 101.8 mm.Hg
- blood pressure Δ ([5]; 0.50 mg/kg i.v.): -15.9 mm.Hg
- dp/dt (inotropism) after ([5]; 0.50 mg/kg i.v.): 6833 mm.Hg/sec
- dp/dt (inotropism) Δ ([5]; 0.50 mg/kg i.v.): -1934 mm.Hg/sec
- dp/dt WD ([5]; 0.50 mg/kg i.v.): 7.6 min
- heart frequency after ([5]; 0.50 mg/kg i.v.): 186.7 min⁻¹
- heart frequency Δ ([5]; 0.50 mg/kg i.v.): -0.7 min⁻¹
- blood pressure WD ([5]; 1.00 mg/kg i.v.): 5.6 min
- blood pressure after ([5]; 1.00 mg/kg i.v.): 91.0 mm.Hg
- blood pressure Δ ([5]; 1.00 mg/kg i.v.): -27.8 mm.Hg
- dp/dt (inotropism) after ([5]; 1.00 mg/kg i.v.): 5050 mm.Hg/sec
- dp/dt (inotropism) Δ ([5]; 1.00 mg/kg i.v.): -3283 mm.Hg/sec
- dp/dt WD ([5]; 1.00 mg/kg i.v.): 15.2 min
- heart frequency after ([5]; 1.00 mg/kg i.v.): 172.0 min⁻¹
- heart frequency Δ ([5]; 1.00 mg/kg i.v.): -12.0 min⁻¹
- blood pressure WD ([5]; 2.50 mg/kg i.v.): 6.4 min
- blood pressure after ([5]; 2.50 mg/kg i.v.): 78.5 mm.Hg
- blood pressure Δ ([5]; 2.50 mg/kg i.v.): -44.8 mm.Hg
- dp/dt (inotropism) after ([5]; 2.50 mg/kg i.v.): 2817 mm.Hg/sec
- dp/dt (inotropism) Δ ([5]; 2.50 mg/kg i.v.): -5183 mm.Hg/sec
- dp/dt WD ([5]; 2.50 mg/kg i.v.): > 10 min
- heart frequency after ([5]; 2.50 mg/kg i.v.): 158.3 min⁻¹
- heart frequency Δ ([5]; 2.50 mg/kg i.v.): -20.0 min⁻¹

Compound: O=[N+]([O-])O[C@H]1CO[C@H]2[C@@H]1OC[C@H]2NCC(O)COc1cccc2ccccc12 (stereo partly drawn) [Example 55, 5-[2-Hydroxy-3-(1-naphthyloxy)-propylamino]-5-desoxy-1.4;3.6-dianhydro-D-glucitol 2-nitrate]
- activation at 25 µg/mL [3]: 203%
- blood pressure before ([5]; 0.25 mg/kg i.v.): 113.8 mm.Hg
- dp/dt (inotropism) before ([5]; 0.25 mg/kg i.v.): 5633 mm.Hg/sec
- heart frequency before ([5]; 0.25 mg/kg i.v.): 161.7 min⁻¹
- blood pressure WD ([5]; 0.25 mg/kg i.v.): 4.8 min
- blood pressure after ([5]; 0.25 mg/kg i.v.): 107.0 mm.Hg
- blood pressure Δ ([5]; 0.25 mg/kg i.v.): -6.8 mm.Hg
- dp/dt (inotropism) after ([5]; 0.25 mg/kg i.v.): 5200 mm.Hg/sec
- dp/dt (inotropism) Δ ([5]; 0.25 mg/kg i.v.): -433 mm.Hg/sec
- dp/dt WD ([5]; 0.25 mg/kg i.v.): 4.2 min
- heart frequency after ([5]; 0.25 mg/kg i.v.): 164.7 min⁻¹
- heart frequency Δ ([5]; 0.25 mg/kg i.v.): +3.0 min^-1
- blood pressure WD ([5]; 0.50 mg/kg i.v.): 2.8 min
- blood pressure after ([5]; 0.50 mg/kg i.v.): 98.8 mm.Hg
- blood pressure Δ ([5]; 0.50 mg/kg i.v.): -12.7 mm.Hg
- dp/dt (inotropism) after ([5]; 0.50 mg/kg i.v.): 4667 mm.Hg/sec
- dp/dt (inotropism) Δ ([5]; 0.50 mg/kg i.v.): -533 mm.Hg/sec
- dp/dt WD ([5]; 0.50 mg/kg i.v.): 5.2 min
- heart frequency after ([5]; 0.50 mg/kg i.v.): 157.3 min⁻¹
- heart frequency Δ ([5]; 0.50 mg/kg i.v.): +2.0 min^-1
- blood pressure WD ([5]; 1.00 mg/kg i.v.): 5.2 min
- blood pressure after ([5]; 1.00 mg/kg i.v.): 96.8 mm.Hg
- blood pressure Δ ([5]; 1.00 mg/kg i.v.): -18.2 mm.Hg
- dp/dt (inotropism) after ([5]; 1.00 mg/kg i.v.): 4000 mm.Hg/sec
- dp/dt (inotropism) Δ ([5]; 1.00 mg/kg i.v.): -1117 mm.Hg/sec
- dp/dt WD ([5]; 1.00 mg/kg i.v.): 8.9 min
- heart frequency after ([5]; 1.00 mg/kg i.v.): 154.0 min⁻¹
- heart frequency Δ ([5]; 1.00 mg/kg i.v.): -1.3 min⁻¹
- blood pressure WD ([5]; 2.50 mg/kg i.v.): 6.3 min
- blood pressure after ([5]; 2.50 mg/kg i.v.): 94.3 mm.Hg
- blood pressure Δ ([5]; 2.50 mg/kg i.v.): -26.0 mm.Hg
- dp/dt (inotropism) after ([5]; 2.50 mg/kg i.v.): 3517 mm.Hg/sec
- dp/dt (inotropism) Δ ([5]; 2.50 mg/kg i.v.): -1266 mm.Hg/sec
- dp/dt WD ([5]; 2.50 mg/kg i.v.): > 7.8 min
- heart frequency after ([5]; 2.50 mg/kg i.v.): 148.0 min⁻¹
- heart frequency Δ ([5]; 2.50 mg/kg i.v.): 0 min⁻¹

Compound: O=[N+]([O-])O[C@@H]1CO[C@H]2[C@@H]1OC[C@@H]2O [ISMN, 1.4;3.6-dianhydro-D-glucitol 2-nitrate, reference compound]
- blood pressure Δ ([4]; 0.25 mg/kg i.v.): -3.70 mm.Hg
- blood pressure Δ ([4]; 1.00 mg/kg i.v.): -6.30 mm.Hg
- blood pressure Δ ([4]; 2.50 mg/kg i.v.): -10.90 mm.Hg
- activation at 25 µg/mL [3]: 9.11%
